Read-outs that look alike come from different tables or passages of the source.
Experiments:
plasma kallikrein = target: T1, plasma kallikrein (Homo sapiens, UniProt P03952); assay: Neat human plasma assay, FXIIa contact pathway-activated, PFR-AMC substrate; assay type: biochemical; conditions: read-out: Human Plasma Assay: IC90
T1 construct: from tissue
Procedure, shortened: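 Citrated human plasma (78% final) with compound, contact-activated by 10 nM human FXIIa in pKal buffer pH 7.5, with 100 μM PFR-AMC. Fluorescence (360/480 nm) followed 5 min at room temperature; rates versus concentration fitted by 4-parameter equation for IC50/IC90.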

[1] = target: human activated kallikrein enzyme (Homo sapiens, UniProt P03952); assay: Plasma kallikrein inhibition, fluorogenic PFR-AMC substrate, 500 pM activated kallikrein format; assay type: biochemical; conditions: 300 uM PFR-AMC, 30 min preincubation, 10 min reaction
Procedure, shortened: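 500 pM enz + cpd, 30 min RT preinc; start w/ PFR-AMC 300 uM; 10 min RT; Ex380/Em460. Buffer: Tris 20 mM pH 7.5, EDTA 1 mM, NaCl 150 mM, PEG-400 0.1%, Triton 0.1%. EC50.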

[2] = citrated human plasma 78% final, 10 nM human FXIIa, 100 μM PFR-AMC
[3] = 500 pM activated kallikrein, read-out: Primary Dose Response Assay: Average EC50

human activated kallikrein enzyme, sequence (P03952 391-638 limits assumed): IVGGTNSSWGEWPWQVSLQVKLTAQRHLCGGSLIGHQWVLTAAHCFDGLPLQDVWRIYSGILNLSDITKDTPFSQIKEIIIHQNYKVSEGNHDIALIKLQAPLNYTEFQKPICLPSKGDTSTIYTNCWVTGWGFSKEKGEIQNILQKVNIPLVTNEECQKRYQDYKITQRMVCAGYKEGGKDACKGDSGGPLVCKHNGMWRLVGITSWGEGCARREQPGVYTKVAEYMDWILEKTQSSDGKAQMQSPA
human activated kallikrein enzyme, sequence (P03952 20-390 partner limits assumed): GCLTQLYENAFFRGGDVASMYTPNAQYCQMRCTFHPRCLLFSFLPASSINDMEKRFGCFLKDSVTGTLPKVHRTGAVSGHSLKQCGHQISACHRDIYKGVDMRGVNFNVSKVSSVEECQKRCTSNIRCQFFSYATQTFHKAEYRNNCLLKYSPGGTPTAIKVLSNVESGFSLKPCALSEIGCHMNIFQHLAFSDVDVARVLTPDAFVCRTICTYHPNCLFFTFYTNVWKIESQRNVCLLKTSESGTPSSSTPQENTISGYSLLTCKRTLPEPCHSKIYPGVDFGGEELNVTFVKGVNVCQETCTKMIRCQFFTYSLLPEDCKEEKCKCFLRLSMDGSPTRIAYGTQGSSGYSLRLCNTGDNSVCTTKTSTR
T1 sequence (P03952 391-638 limits assumed): as the sequence (P03952 391-638 limits assumed) above
T1 sequence (P03952 20-390 partner limits assumed): as the sequence (P03952 20-390 partner limits assumed) above

SMILES | IC90 (plasma kallikrein; [2]) [µM] | EC50 [1, 3] [µM] | IC90 (plasma kallikrein) [µM] | EC50 ([1]; Primary Dose Response Assay: Average EC50, 500 pM activated kallikrein) [µM]
CC(=O)N(C)c1cc(C2CC2)cn2cc(CNc3cc(NC(=O)[C@H]4C[C@@H]4c4cccc(Cl)c4)ncn3)nc12 [Example 274, (1S,2S)-2-(3-chlorophenyl)-N-(6-(((6-cyclopropyl-8-(N-methylacetamido)imidazo[1,2-a]pyridin-2-yl)methyl)amino)pyrimidin-4-yl)cyclopropane-1-carboxamide] | 1.5 to 10 | 0.001 to 0.01 |  | 
CN1CCN(c2cc(C3CC3)cn3cc(CNc4cc(NC(=O)[C@H]5C[C@@H]5c5cccc(Cl)c5)ncn4)nc23)CC1 [Example I-2, (1S,2S)-2-(3-chlorophenyl)-N-(6-(((6-cyclopropyl-8-(4-methylpiperazin-1-yl)imidazo[1,2-a]pyridin-2-yl)methyl)amino)pyrimidin-4-yl)cyclopropane-1-carboxamide] | 0.4 to 1.5 | < 0.001 |  | 
O=C(Nc1cc(NCc2cn3cc(C4CC4)cc(N4CCOC4=O)c3n2)ncn1)[C@H]1C[C@@H]1c1cc(Cl)ccn1 [Example I-172, (1S,2S)-2-(4-chloropyridin-2-yl)-N-(6-(((6-cyclopropyl-8-(2-oxooxazolidin-3-yl)imidazo[1,2-a]pyridin-2-yl)methyl)amino)pyrimidin-4-yl)cyclopropane-1-carboxamide] | 0.4 to 1.5 | < 0.001 |  | 
Cc1ccnc([C@H]2C[C@@H]2C(=O)Nc2cc(N(C)C(C)c3cn4cc(C5CC5)cc(N5CC(=O)N(C)C5=O)c4n3)ncn2)n1 (stereo partly drawn) [Example 369, (1S,2S)-N-(6-((1-(6-cyclopropyl-8-(3-methyl-2,4-dioxoimidazolidin-1-yl)imidazo[1,2-a]pyridin-2-yl)ethyl)(methyl)amino)pyrimidin-4-yl)-2-(4-methylpyrimidin-2-yl)cyclopropane-1-carboxamide] | 1.5 to 10 | 0.001 to 0.01 |  | 
Cc1ccnc([C@H]2C[C@@H]2C(=O)Nc2cc(NCc3cn4cc(C5CC5)cc(N5CC(=O)N(C)C5=O)c4n3)ncn2)n1 (single isomer, unassigned) [Example I-260] | < 0.4 | < 0.001 |  | 
CN1CCC(F)(c2cc(C3CC3)cn3cc(CNc4cc(NC(=O)[C@H]5C[C@@H]5c5cccc(Cl)c5)ncn4)nc23)CC1 [Example 403, (1S,2S)-2-(3-chlorophenyl)-N-(6-(((6-cyclopropyl-8-(4-fluoro-1-methylpiperidin-4-yl)imidazo[1,2-a]pyridin-2-yl)methyl)amino)pyrimidin-4-yl)cyclopropane-1-carboxamide] | 0.4 to 1.5 | < 0.001 |  | 
CN1CCN(c2cc(C3CC3)cn3cc(CNc4ccnc(NC(=O)[C@H]5C[C@@H]5c5cccc(Cl)c5)c4)nc23)CC1 [Example 138, (1S,2S)-2-(3-chlorophenyl)-N-(4-(((6-cyclopropyl-8-(4-methylpiperazin-1-yl)imidazo[1,2-a]pyridin-2-yl)methyl)amino)pyridin-2-yl)cyclopropane-1-carboxamide] | < 0.4 | < 0.001 |  | 
Cc1ccnc([C@H]2C[C@@H]2C(=O)Nc2nc(Cl)nc(NCc3cn4cc(C5CC5)cc(N5CC(=O)N(C)C5=O)c4n3)n2)n1 (racemic) [Example 622, rac-(1S*,2S*)—N-(4-chloro-6-(((6-cyclopropyl-8-(3-methyl-2,4-dioxoimidazolidin-1-yl)imidazo[1,2-a]pyridin-2-yl)methyl)amino)-1,3,5-triazin-2-yl)-2-(4-methylpyrimidin-2-yl)cyclopropane-1-carboxamide] | 0.4 to 1.5 | < 0.001 |  | 
N#Cc1ccc(Cl)cc1[C@H]1C[C@@H]1C(=O)Nc1cc(N2C[C@@H](O)C[C@@H]2c2cn3cc(C4CC4)ccc3n2)ncn1 (relative stereo) [Example 477, rac-(1S*,2S*)-2-(5-chloro-2-cyanophenyl)-N-(6-((2R,4S)-2-(6-cyclopropylimidazo[1,2-a]pyridin-2-yl)-4-hydroxypyrrolidin-1-yl)pyrimidin-4-yl)cyclopropane-1-carboxamide] | 1.5 to 10 | 0.001 to 0.01 |  | 
O=C(Nc1nsc(NCc2cn3cc(C4CC4)ccc3n2)n1)[C@H]1C[C@@H]1c1cccc(Cl)c1 [Example 610, (1S,2S)-2-(3-chlorophenyl)-N-(5-(((6-cyclopropylimidazo[1,2-a]pyridin-2-yl)methyl)amino)-1,2,4-thiadiazol-3-yl)cyclopropane-1-carboxamide] | 10 to 48 | 0.001 to 0.01 |  | 
O=C(Nc1cc(NCc2cn3cc(C4CC4)cc(C4(O)COC4)c3n2)ncn1)[C@H]1C[C@@H]1c1cccc(Cl)c1 (racemic) [Example 63, rac-(1S*,2S*)-2-(3-chlorophenyl)-N-(6-(((6-cyclopropyl-8-(3-hydroxyoxetan-3-yl)imidazo[1,2-α]pyridin-2-yl)methyl)amino)pyrimidin-4-yl)cyclopropane-1-carboxamide] | 1.5 to 10 | 0.001 to 0.01 |  | 
Cc1ccnc([C@H]2C[C@@H]2C(=O)Nc2cc(N[C@H](C)c3cn4cc(CF)cc(N5CC(=O)N(C)C5=O)c4n3)ncn2)n1 [Example 678, (1S,2S)—N-(6-(((R)-1-(6-(fluoromethyl)-8-(3-methyl-2,4-dioxoimidazolidin-1-yl)imidazo[1,2-a]pyridin-2-yl)ethyl)amino)pyrimidin-4-yl)-2-(4-methylpyrimidin-2-yl)cyclopropane-1-carboxamide] |  |  | < 0.4 | < 0.001
Cc1ccc(C#N)c([C@H]2C[C@@H]2C(=O)Nc2cc(NCc3cn4cc(C5CC5)cc(N5CC(=O)N(C)C5=O)c4n3)ncn2)n1 (racemic) [Example I-166, rac-(1S*,2S*)-2-(3-cyano-6-methylpyridin-2-yl)-N-(6-(((6-cyclopropyl-8-(3-methyl-2,4-dioxoimidazolidin-1-yl)imidazo[1,2-a]pyridin-2-yl)methyl)amino)pyrimidin-4-yl)cyclopropane-1-carboxamide] | 0.4 to 1.5 | < 0.001 |  | 
O=C(Nc1cc(NCc2cn3cc(C4CC4)cc(N4CNCC4=O)c3n2)ncn1)[C@H]1C[C@@H]1c1cccc(Cl)c1 [Example I-19, (1S,2S)-2-(3-chlorophenyl)-N-(6-(((6-cyclopropyl-8-(5-oxoimidazolidin-1-yl)imidazo[1,2-a]pyridin-2-yl)methyl)amino)pyrimidin-4-yl)cyclopropane-1-carboxamide] | < 0.4 | < 0.001 |  | 
CN1CCC(Nc2cc(C3CC3)cn3cc(CNc4cc(NC(=O)[C@H]5C[C@@H]5c5cccc(Cl)c5)ncn4)nc23)CC1 [Example I-5, (1S,2S)-2-(3-chlorophenyl)-N-(6-(((6-cyclopropyl-8-((1-methylpiperidin-4-yl)amino)imidazo[1,2-a]pyridin-2-yl)methyl)amino)pyrimidin-4-yl)cyclopropane-1-carboxamide] | 0.4 to 1.5 | < 0.001 |  | 
CN1CCC(O)(c2cc(C3CC3)cn3cc(CNc4ccnc(NC(=O)[C@H]5C[C@@H]5c5cccc(Cl)c5)c4)nc23)CC1 [Example 488, (1S,2S)-2-(3-chlorophenyl)-N-(4-(((6-cyclopropyl-8-(4-hydroxy-1-methylpiperidin-4-yl)imidazo[1,2-a]pyridin-2-yl)methyl)amino)pyridin-2-yl)cyclopropane-1-carboxamide] | 0.4 to 1.5 | < 0.001 |  | 
O=C(Nc1cc(N(CCO)Cc2cn3cc(C4CC4)ccc3n2)ccn1)[C@H]1C[C@@H]1c1cc(Cl)ccn1 [Example 137, (1S,2S)-2-(4-chloropyridin-2-yl)-N-(4-(((6-cyclopropylimidazo[1,2-a]pyridin-2-yl)methyl)(2-hydroxyethyl)amino)pyridin-2-yl)cyclopropane-1-carboxamide] | 1.5 to 10 | < 0.001 |  | 
O=C(Nc1cc(NCc2cn3cc(C4CC4)cc(C(=O)N4CCNCC4)c3n2)ncn1)[C@H]1C[C@@H]1c1cccc(Cl)c1 [Example 304, (1S,2S)-2-(3-chlorophenyl)-N-(6-(((6-cyclopropyl-8-(piperazine-1-carbonyl)imidazo[1,2-a]pyridin-2-yl)methyl)amino)pyrimidin-4-yl)cyclopropane-1-carboxamide] | < 0.4 | < 0.001 |  | 
O=C(Nc1cc(N2C[C@@H](O)C[C@@H]2c2cn3cc(C4CC4)ccc3n2)ncn1)[C@H]1C[C@@H]1c1nccc(Cl)n1 (relative stereo) [Example 481, rac-(1S*,2S*)-2-(4-chloropyrimidin-2-yl)-N-(6-((2R,4S)-2-(6-cyclopropylimidazo[1,2-a]pyridin-2-yl)-4-hydroxypyrrolidin-1-yl)pyrimidin-4-yl)cyclopropane-1-carboxamide] | 1.5 to 10 | < 0.001 |  | 
CC(=O)c1cc(C2CC2)cn2cc(CNc3ccnc(NC(=O)[C@H]4C[C@@H]4c4cccc(Cl)c4)c3)nc12 [Example I-237, (1S,2S)-N-(4-(((8-acetyl-6-cyclopropylimidazo[1,2-a]pyridin-2-yl)methyl)amino)pyridin-2-yl)-2-(3-chlorophenyl)cyclopropane-1-carboxamide] | 1.5 to 10 | < 0.001 |  | 
O=C(Nc1cc(NCc2cn3cc(C4CC4)cc(N4CCN(C5CC5)CC4)c3n2)ccn1)[C@H]1C[C@@H]1c1cccc(Cl)c1 [Example I-232, (1S,2S)-2-(3-chlorophenyl)-N-(4-(((6-cyclopropyl-8-(4-cyclopropylpiperazin-1-yl)imidazo[1,2-a]pyridin-2-yl)methyl)amino)pyridin-2-yl)cyclopropane-1-carboxamide] | 1.5 to 10 | < 0.001 |  | 
